# Data taken from US10517833B2 (Cardiora Pty Ltd., priority 2011, dated 2019).
# Read-outs that look alike come from different tables or passages of the source.
# Tests used:
# [1] = test system: patients undergoing cardiopulmonary bypass; conditions: cited from earlier work
# patients with CHF = test system: patients with CHF; parameters: dose or concentration left out as unconfirmed; conditions: 15 minutes post-dosing, cited from earlier work
# patients with severe CHF [2] = conditions: cited from earlier work
# [3] = test system: patients with endstage CHF; conditions: compared with the preceding 3 months; cited from earlier work
# [4] = test system: patients with class III or IV CHF; conditions: after milrinone therapy; 5 patients at baseline; cited from earlier work
# [5] = after 6 hours (equilibrium), AHF patients, cited from earlier work
# [6] = test system: pediatric patients at high risk for developing low cardiac output syndrome (LCOS); conditions: cited from earlier work
# [7] = test system: patients with left ventricular dysfunction and/or pulmonary hypertension; conditions: 50 μg/kg loading then 0.5 μg/kg/minute, n=15; cited from earlier work
# refractory HF patients = conditions: 12-month study, cited from earlier work
# [8] = test system: Human internal mammary arterial rings; conditions: rings pretreated with milrinone; cited from earlier work
# [9] = test system: patients with NYHA class III or IV HF and pulmonary vascular resistance of 200 dynes/s/cm or more; parameters: dose or concentration left out as unconfirmed; conditions: cited from earlier work
# [10] = test system: patients undergoing CABG surgery; conditions: ten minutes after drug administration versus before; cited from earlier work
# [11] = pH solubility studies on Milrinone (saturated solubility in different buffers); assay type: physicochemical; conditions: for solubility at 24 h: thermodynamic from solid
# Method: 1. pH 1.2-Hydrochloric Acid Buffer
# 3. pH 6.8-Phosphate Buffer
# 4. pH 7.4-Phosphate Buffer.
# 1. 2 mL buffer solution is placed into a 8 mL USP Type I clear glass vial (with screw cap and PTFE septa)
# 3. The addition of Milrinone is continued till the formation of saturated solution.
# 4. The pH of the saturated solution is measured after the addition of Milrinone.
# 5. If there is any difference in pH more than 0.1 units is observed when compared to the initial pH, the pH was adjusted with acid or base respectively to bring it to the initial pH.
# 6. The vials are closed with screw cap and kept for mixing using rotary tube shaker for 24 h.
# patients with severe CHF [12] = conditions: oral, cited from earlier work
# [13] = test system: pediatric patients with low cardiac output; conditions: intravenous; cited from earlier work
structure (smiles),measurement,setting,value
"Cc1[nH]c(=O)c(C#N)cc1-c1ccncc1 [milrinone, 1,2-dihydro-3-cyano-6-methyl-5-(4-pyridinyl)-2(1H)-pyridinone]",Plasma concentrations of IL1-beta and IL6,"[1]; after CPB, versus control group, 0.5 μg/kg/minute for 24 hours",significantly lower
same,concentrations of cyclic adenosine monophosphate,[1]; versus controls,significantly increased
same,pulmonary vascular resistance,patients with CHF; from 3.9,2.5 Wood units
same,Cardiac output,patients with CHF; from 4.0,5.1 L/min
same,pulmonary capillary wedge pressure,patients with CHF; from 20,15 mmHg
same,mean pulmonary artery pressure,patients with CHF; from 35,28 mmHg
same,left ventricular end-diastolic pressure,"patients with severe CHF [2]; after median short-term infusion 75 μg/kg IV, from 27 at baseline",18 mmHg
same,increase in left ventricular ejection fraction,"patients with severe CHF [2]; following a 7.5 mg oral dose, 10 patients on drug for 6 months or longer",27%
same,decrease in mean arterial pressure,patients with severe CHF [2]; intravenous,6%
same,increase in peak positive first derivative of left ventricular pressure (dP/dT),patients with severe CHF [2]; intravenous,28%
same,increase in resting heart rate,patients with severe CHF [2]; intravenous,8%
same,"fever, thrombocytopenia, or gastrointestinal toxicity","patients with severe CHF [2]; oral therapy, average 29 mg daily, up to 11 months",No evidence
same,drop in number of hospitalizations,[3],fourfold
same,inducible VT during programmed right ventricular stimulation,[4],none of the patients experienced inducible VT
same,plasma milrinone concentration,[5]; continuous infusion 0.25 μg/kg after loading dose,97 ng/mL
same,plasma milrinone concentration,[5]; continuous infusion 0.5 μg/kg after loading dose,197 ng/mL
same,plasma milrinone concentration,[5]; continuous infusion 0.75 μg/kg after loading dose,284 ng/mL
same,patients who developed LCOS,"[6]; high-dose group, within 36 hours",9.6%
same,patients with prolonged hospital stays (longer than 15 days),[6]; high-dose group,13.5%
same,RRR of LCOS,"[6]; low-dose group versus placebo, not statistically significant",34%
same,patients who developed LCOS,[6]; low-dose group,17.7%
same,patients with prolonged hospital stays (longer than 15 days),[6]; low-dose group,8.2%
same,weaning from cardiopulmonary bypass,[7],all patients were successfully weaned
same,emergency room admissions,refractory HF patients; from 21 in previous year,10
same,hospital admissions,refractory HF patients; from 75 in previous year,34
same,hospital days,refractory HF patients; from 528 in previous year,150
same,"vasoconstriction by K+, ET-1, U46619 and phenylephrine",[8],significantly less vasoconstricition
same,mean decrease in pulmonary vascular resistance,[9]; at 5 minutes,31%
same,duration of response,[9],at least 20 minutes
same,change in IMA flow,[10],24%
same,solubility,"[11]; acidic pH, decreases gradually with increase in pH",highly soluble
same,solubility at 24 h,"[11]; aqueous buffer, pH 4.5 Acetate Buffer",1830 µg/mL
same,solubility at 24 h,"[11]; aqueous buffer, pH 6.8 Phosphate Buffer",742 µg/mL
same,solubility at 24 h,"[11]; aqueous buffer, pH 7.4 Phosphate Buffer",603 µg/mL
same,solubility at 24 h,"[11]; hydrochloric acid buffer, simulated gastric fluid, pH 1.2 Hydrochloric Acide Buffer",25400 µg/mL
same,mortality rate,patients with severe CHF [12]; at 1 year of therapy,63%
same,mortality rate,patients with severe CHF [12]; at 6 months,39%
same,patients with adverse effects,patients with severe CHF [12]; average 27 mg/day,11%
same,patients with drug withdrawal due to adverse effects,patients with severe CHF [12]; average 27 mg/day,4%
same,patients improved by at least one New York Heart Association functional class,"patients with severe CHF [12]; within 1 month of therapy, remaining 94 patients",51%
same,average peak plasma concentration,[13],235 ng/mL
same,mean decrease in blood pressure,[13],12%
CNC[C@H](O)c1ccc(O)c(O)c1 [epinephrine],change in IMA flow,[10],unchanged
